Source: the NIST ThermoML archive (doi:10.1016/j.tca.2010.04.004)

Assay: mn = molality of the nth substance listed, in mol/kg
Settings: 298.15 K, 101 kPa, Liquid, Vibrating tube method

O=S(=O)(O)CCCN1CCOCC1 [4-morpholinepropanesulfonic acid] + O
Settings | mass density [kg/m3]
m1 = 0.0077 | 997.53
m1 = 0.0172 | 998.13
m1 = 0.0292 | 998.88
m1 = 0.0386 | 999.46
m1 = 0.0496 | 1000.14
m1 = 0.0556 | 1000.5
m1 = 0.0611 | 1000.84
m1 = 0.0668 | 1001.19
m1 = 0.0736 | 1001.59
m1 = 0.0812 | 1002.05
m1 = 0.0869 | 1002.39

[Cl-].[K+] [potassium chloride] + O
Settings | mass density [kg/m3]
m1 = 0.05 | 999.45
m1 = 0.16 | 1004.53
m1 = 0.25 | 1008.66

O=S(=O)(O)CCCCN1CCOCC1 [4-morpholinebutanesulfonic acid] + O
Settings | mass density [kg/m3]
m1 = 0.0134 | 997.89
m1 = 0.0201 | 998.3
m1 = 0.0282 | 998.8
m1 = 0.0365 | 999.31
m1 = 0.0456 | 999.87
m1 = 0.054 | 1000.38
m1 = 0.0636 | 1000.96
m1 = 0.0702 | 1001.35
m1 = 0.0768 | 1001.74
m1 = 0.0827 | 1002.09

[Br-].[K+] [potassium bromide] + O
Settings | mass density [kg/m3]
m1 = 0.05 | 1001.25
m1 = 0.16 | 1010.47
m1 = 0.25 | 1017.89

CC(=O)[O-].[K+] [potassium ethanoate] + O
Settings | mass density [kg/m3]
m1 = 0.05 | 999.46
m1 = 0.16 | 1004.6
m1 = 0.25 | 1008.74

O=S(=O)(O)CC(O)CN1CCOCC1 (stereo not drawn) [3-morpholino-2-hydroxypropanesulfonic acid] + O
Settings | mass density [kg/m3]
m1 = 0.0126 | 998.04
m1 = 0.0178 | 998.45
m1 = 0.0228 | 998.84
m1 = 0.027 | 999.17
m1 = 0.036 | 999.87
m1 = 0.045 | 1000.57
m1 = 0.0519 | 1001.1
m1 = 0.063 | 1001.95
m1 = 0.0706 | 1002.53
m1 = 0.0771 | 1003.03

O=S(=O)(O)CCN1CCOCC1 [4-morpholineethanesulfonic acid] + O
Settings | mass density [kg/m3]
m1 = 0.0114 | 997.79
m1 = 0.018 | 998.22
m1 = 0.0237 | 998.59
m1 = 0.0301 | 999.01
m1 = 0.0403 | 999.67
m1 = 0.0513 | 1000.38
m1 = 0.0614 | 1001.03
m1 = 0.0722 | 1001.72
m1 = 0.0822 | 1002.35
m1 = 0.0947 | 1003.14

[Cl-].[Na+] [sodium chloride] + O
Settings | mass density [kg/m3]
m1 = 0.05 | 999.12
m1 = 0.16 | 1003.6
m1 = 0.25 | 1007.22
